Data set [1] is described as follows: in vitro. The following applies: for half-life: human, plasma. The method, then:
(§1) Solutions of various compounds of formula I in aqueous buffer solutions or 80% human plasma solutions as well as in a buffer solution (pH 7.4) containing pyroglutamyl aminopeptidase (a calf liver preparation obtained from Boehringer, Mannheim, F.R.G.) were kept at 37° C. The initial concentration of the derivatives was in the range 10^-5 -10^-3 M. At various times an aliquot of the solutions was withdrawn and analyzed by HPLC for remaining (intact) derivative as well as for TRH. For the plasma solutions the aliquot (250 μl) withdrawn was added to 500 μl of a 2% solution of zinc sulphate in methanol-water (1:1 v/v) in order to deproteinize the plasma. After mixing and centrifugation for 3 min at 13,000 rpm, 20 μl of the clear supernatant was analyzed by HPLC as described above. The reaction conditions used for the studies with the pyroglutamyl aminopeptidase enzyme were identical to those previously described by Bundgaard & Moss (1989).
(§2) An HPLC method was used for the determination of TRH and its derivatives. […] For the determination of TRH formed upon hydrolysis of the various derivatives a mobile phase system consisting of acetonitrile-0.1% phosphoric acid (1:20 v/v) containing […] triethylamine was used. The flow rate was 1.5 ml min and the column effluent was monitored at 215 nm. Quantitation of the compounds was done by measuring the peak heights in relation to those of standards chromatographed under the same conditions.
For the consideration of the derivatives as prodrugs of TRH a crucial point is evidently their degradation pathways. Ideally, the compounds should be hydrolyzed in plasma at the imidazole-protected moiety, releasing TRH in quantitative amounts.
The reactions taking place in plasma can be illustrated as shown in Scheme 1.

The target of data set [2] is T1, pyroglutamyl aminopeptidase (PAPase I) (Bos taurus, UniProt A0ABI0NU39).
T1 sequence (A0ABI0NU39 1-214): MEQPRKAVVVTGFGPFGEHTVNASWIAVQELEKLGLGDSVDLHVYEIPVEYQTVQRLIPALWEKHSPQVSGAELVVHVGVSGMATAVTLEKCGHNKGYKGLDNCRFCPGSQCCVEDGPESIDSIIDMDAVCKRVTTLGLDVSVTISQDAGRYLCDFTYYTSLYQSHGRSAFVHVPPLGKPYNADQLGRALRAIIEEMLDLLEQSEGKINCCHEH
The data set can be described thus: Degradation in buffer pH 7.4 containing pyroglutamyl aminopeptidase. Conditions: for half-life: calf. On the procedure: as §1, §2

Data set [3] can be described thus: Hydrolysis in aqueous buffer solutions (HPLC). In kind it is physicochemical. The method, then:
as §1, with “Solutions of various compounds of formula I in aqueous buffer solutions or 80% human plasma solutions as well as in a buffer solution (pH 7.4) containing pyroglutamyl aminopeptidase (a calf liver preparation obtained from Boehringer, Mannheim, F.R.G.) were kept at 37° C.” left out
as §2

Data set [4] in a line: Chromatographic capacity factor k' by reversed-phase column chromatography (relative lipophilicity). Conditions: Nova-PAK CN HP reversed-phase column; methanol-0.1% phosphoric acid (1:20 v/v) with 10^-3 M triethylamine. In kind it is physicochemical. The source says: The capacity factor k' of a solute is defined as: k'=(tr -t0)/t0 where tr is the retention time of the solute and t0 is the elution time of the solvent.

A short description of data set [5]: Apparent partition coefficient between 1-octanol and phosphate buffer pH 7.4. The following applies: for logD: 1-octanol/0.02 M phosphate buffer pH 7.4, pH 7.4.
Method: (§3) The lipophilicity of the derivatives of the present invention and of TRH was assessed by measuring the apparent partition coefficients (P) of the compounds between 1-octanol and 0.02M phosphate buffer of pH 7.4.
Data set [6] is described as follows: physchem. The following applies: pH 7.4.
Method: as §3
The conditions of data set [7]: in vivo, iv; cited from earlier work.
The conditions of data set [8]: rat, in vivo, iv; cited from earlier work.
A short description of data set [9]: Percutaneous absorption, in vitro diffusion through excised human skin (Franz cells). The following applies: for steady-state flux: 5% prodrug in aqueous solution (pH 6.0).
Method: The feasibility of achieving transdermal delivery of TRH via the prodrugs ot the present invention was evaluated by diffusion experiments in vitro using human skin samples.
Whole abdominal human skin obtained under autopsy was used. The skin was stored at -18° C. and was allowed to thaw gradually at room temperature before use. All subcutaneous fat was removed and the skin cut into pieces. […] The dermal side of the skin was exposed to the receptor medium (5 ml of 0.05M isotonic phosphate buffer solution of pH 7.2) which was stirred magnetically and kept at a constant temperature of 37° C. with a circulating water bath.
The compounds were applied as 5% w/v solutions in 0.05M phosphate buffer (final pH being 6.0) or propylene glycol (100 or 200 μl). At appropriate intervals samples of 1 ml were removed from the receptor phase and replaced with fresh buffer. The samples were immediately analyzed for TRH and prodrug content by HPLC as described above. The permeation studies of each compound in each vehicle were done in triplicate.

Usually half-life stands for how long it takes for the measured level to halve. The low end stands for rapid decline, the high end for slow decline. Usually logD stands for the decadic logarithm of the distribution of all forms, ionised or not, between an organic phase and buffer at a given pH. In general, log P refers to a log measure of how a compound divides between an organic and an aqueous phase.

Read-outs that look alike come from different tables or passages of the source. Some results are limits rather than exact numbers.

Consider `CCOC(=O)n1cnc(C[C@H](NC(=O)[C@@H]2CCC(=O)N2)C(=O)N2CCC[C@H]2C(N)=O)c1` [C2 H5], for which the values for the half-life in [1] and in data set [2] were 228 min and 23 min, respectively. Besides, the “Half-lives at 37° C., pH 7.4 buffer” value in [3] came to 14.2 h. Also, the “log k'” value in data set [4] stood at 0.85. For the same compound, in [5], the logD was -1.3.
On to `NC(=O)[C@@H]1CCCN1C(=O)[C@H](Cc1cn(C(=O)OC2CCCCC2)cn1)NC(=O)[C@@H]1CCC(=O)N1` [C6 H10 (cyclohexyl)], for which the results for the half-life in data set [1] and in data set [2] were 384 min and 22 min, respectively. In [3], the “Half-lives at 37° C., pH 7.4 buffer” value is on record as 36.8 h. The “log k'” value in data set [4] turned out to be 1.28. In addition, in data set [5], the logD was found to be 0.6.
On to `NC(=O)[C@@H]1CCCN1C(=O)[C@H](Cc1cn(C(=O)OCc2ccccc2)cn1)NC(=O)[C@@H]1CCC(=O)N1` [CH2 C6 H5], for which the half-life in data set [2] turned out to be 7 min. In data set [3], the “Half-lives at 37° C., pH 7.4 buffer” value is recorded as 9.0 h. The logD in data set [5] was -0.11.
As to `NC(=O)[C@@H]1CCCN1C(=O)[C@H](Cc1cn(C(=O)OCCCl)cn1)NC(=O)[C@@H]1CCC(=O)N1` [CH2 CH2 Cl], in data set [5], the pH-dependent lipophilicity (logD) is -1.1.
Same read-out and setting: the same measure for `CCCCC(CC)COC(=O)n1cnc(C[C@H](NC(=O)[C@@H]2CCC(=O)N2)C(=O)N2CCC[C@H]2C(N)=O)c1` (stereo partly shown) [CH2 CH(C2 H5)C4 H9]: 1.82.
For the compound `CC(C)COC(=O)n1cnc(C[C@H](NC(=O)[C@@H]2CCC(=O)N2)C(=O)N2CCC[C@H]2C(N)=O)c1` [CH2 CH(CH3)2], the half-life is 258 min in [1] and 11 min in data set [2]. In addition, the “Half-lives at 37° C., pH 7.4 buffer” value in data set [3] worked out at 19.0 h. Moreover, the “log k'” value in data set [4] was 1.09. Also, the logD in data set [5] is -0.44.
As to `COC(=O)n1cnc(C[C@H](NC(=O)[C@@H]2CCC(=O)N2)C(=O)N2CCC[C@H]2C(N)=O)c1` [CH3], the half-life in data set [1] was 168 min; in data set [2] it was 12 min. The “Half-lives at 37° C., pH 7.4 buffer” value in data set [3] came to 9.3 h. The “log k'” value in data set [4] is given as 0.71. Further, in data set [5] (octanol / 0.02 M phosphate buffer pH 7.4, 21° C.), the “log P” value is 1.88.
For the compound `CCC(CC)OC(=O)n1cnc(C[C@H](NC(=O)[C@@H]2CCC(=O)N2)C(=O)N2CCC[C@H]2C(N)=O)c1` [CH(C2 H5)2], in data set [5], the logD came out at 0.2.
Take `CCCC(CCC)OC(=O)n1cnc(C[C@H](NC(=O)[C@@H]2CCC(=O)N2)C(=O)N2CCC[C@H]2C(N)=O)c1` [CH(C3 H7)2]: the log distribution coefficient (logD) in data set [5] was 1.2.
With `CC(C)OC(=O)n1cnc(C[C@H](NC(=O)[C@@H]2CCC(=O)N2)C(=O)N2CCC[C@H]2C(N)=O)c1` [CH(CH3)2], the half-life in data set [1] was 396 min; in data set [2] it was 29 min. The “Half-lives at 37° C., pH 7.4 buffer” value in data set [3] turned out to be 35.8 h. For the same compound, the “log k'” value in data set [4] is given as 0.96. Moreover, the logD in [5] is -0.8.
On to `NC(=O)[C@@H]1CCCN1C(=O)[C@H](Cc1cnc[nH]1)NC(=O)[C@@H]1CCC(=O)N1` [TRH, pGlu-L-His-L-ProNH2, reference compound], for which the “Half-life at 37° C., 80% v/v human plasma” value in [1] came out at 9 min. Also, in data set [1], the “zero-order rate constant of degradation” value was 7.2e-07 M/min. For the same compound, the half-life in data set [1] came to 9 min; in data set [2] (isolated enzyme aminopeptidase, pH 7.4), 4 min. Further, the logD in [6] was -2.46. In addition, the plasma half-life in data set [7] and in data set [8] was 4 to 6 min in each case. Besides, the “Half-lives at 37° C., pyroglutamyl aminopeptidase” value in [2] (pH 7.4) is 4 min. Besides, in [4], the “log k'” value is less than 0.4.
For the compound `CCCCOC(=O)n1cnc(C[C@H](NC(=O)[C@@H]2CCC(=O)N2)C(=O)N2CCC[C@H]2C(N)=O)c1` [n-C4 H9], the half-life in [1] is 258 min; in data set [2] it was 11 min. In data set [3], the “Half-lives at 37° C., pH 7.4 buffer” value is 19.0 h. Further, the “log k'” value in [4] is listed as 1.07. Moreover, the logD in [5] is -0.47.
The corresponding values for `CCCCCCOC(=O)n1cnc(C[C@H](NC(=O)[C@@H]2CCC(=O)N2)C(=O)N2CCC[C@H]2C(N)=O)c1` [n-C6 H13, N-Hexyloxycarbonyl TRH] are 72 min, 8 min, 17.9 h, 1.29 and 0.71.
Turning to `CCCCCCCCOC(=O)n1cnc(C[C@H](NC(=O)[C@@H]2CCC(=O)N2)C(=O)N2CCC[C@H]2C(N)=O)c1` [n-C8 H17, N-Octyloxycarbonyl TRH], the steady-state flux in data set [9] (human skin) is reported as 0.044±0.006 μmol TRH/h/cm^2; in [9] (human skin, converted from μmol), 16 μg TRH/h/cm^2. For the same compound, the flux in data set [9] (5% prodrug in propylene glycol, human skin) was 3.6 μg/h/cm^2. The “conversion of applied prodrug to parent TRH during diffusion through skin” value in [9] (human skin samples) was “Essentially all”. The half-life was 30 min in data set [1] and 24 min in [2]. The “time for 10% degradation” value in data set [3] (aqueous solution, pH 5.8, 20° C.) is reported as 76 h. In data set [3], the “Half-lives at 37° C., pH 7.4 buffer” value came to 17.5 h. Besides, in data set [4], the “log k'” value was 1.50. In addition, the logD in data set [5] was determined as 1.88.

The values above are taken from patent publication US5405834A, “Prodrug derivatives of thyrotropin-releasing hormone (TRH)” (priority 1989, dated 1995).
